Experimental findings from patent US5430033A, “Piperazine derivatives” (John Wyeth & Brother Ltd., priority 1993, dated 1995) are described below.

Each structure is given as a SMILES string.

For assay [1], the target named is T1, 5-HT1A receptor (Rattus norvegicus, UniProt P19327).
T1 construct: rat hippocampal membrane homogenate; from tissue; host or cells: rat hippocampus, membrane homogenate
T1 sequence (P19327 1-422): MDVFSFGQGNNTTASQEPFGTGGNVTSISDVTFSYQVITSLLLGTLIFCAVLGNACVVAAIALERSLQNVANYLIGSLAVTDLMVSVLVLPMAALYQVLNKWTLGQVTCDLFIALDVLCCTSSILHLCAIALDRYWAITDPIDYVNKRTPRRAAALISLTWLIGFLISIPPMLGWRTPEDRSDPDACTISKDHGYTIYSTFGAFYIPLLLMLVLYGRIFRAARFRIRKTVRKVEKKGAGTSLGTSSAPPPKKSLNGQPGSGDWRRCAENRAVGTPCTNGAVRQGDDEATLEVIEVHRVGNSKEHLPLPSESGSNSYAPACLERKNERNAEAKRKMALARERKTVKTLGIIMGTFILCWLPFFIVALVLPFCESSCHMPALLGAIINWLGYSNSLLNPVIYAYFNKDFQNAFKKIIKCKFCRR
Description: 5-HT1A receptor binding activity in rat hippocampal membrane homogenate. To be noted: method of Alexander and Wood. How it is done: The compounds of the invention are tested for 5-HT1A receptor binding activity in rat hippocampal membrane homogenate by the method of B S Alexander and M D Wood, J Pharm Pharmacol, 1988, 40, 888-891.

The target in assay [2] is T2, 5-HT1A receptor (Cavia porcellus, UniProt A0A286Y074).
T2 construct: guinea-pig ileum in vitro; from tissue; host or cells: guinea-pig ileum
T2 sequence (A0A286Y074 1-421): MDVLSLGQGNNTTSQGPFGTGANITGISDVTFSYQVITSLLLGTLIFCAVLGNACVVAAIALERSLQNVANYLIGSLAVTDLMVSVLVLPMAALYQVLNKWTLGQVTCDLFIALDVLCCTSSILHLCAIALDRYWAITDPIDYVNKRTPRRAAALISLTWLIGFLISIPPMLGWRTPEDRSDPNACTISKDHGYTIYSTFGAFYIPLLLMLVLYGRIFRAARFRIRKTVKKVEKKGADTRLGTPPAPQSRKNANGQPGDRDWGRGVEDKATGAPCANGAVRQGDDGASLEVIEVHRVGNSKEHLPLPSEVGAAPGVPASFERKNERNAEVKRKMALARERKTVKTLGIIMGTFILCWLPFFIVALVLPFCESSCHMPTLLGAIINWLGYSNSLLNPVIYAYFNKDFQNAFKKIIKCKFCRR
Nature of the assay: 5-HT1A receptor antagonism: antagonism of 5-carboxamidotryptamine in the guinea-pig ileum in vitro. It is filed as cell-based. As for the experimental part:
The compounds are tested for 5-HT1A receptor antagonism activity in a test involving the antagonism of 5-carboxamidotryptamine in the guinea-pig ileum in vitro (based upon the procedure of Fozard et al, Br J Pharmac, 1985, 86, 601P).

One may read the IC50 as the concentration at which inhibition is half-maximal. Turning to `COc1ccccc1N1CCN(CCc2ccccc2-c2ccccc2)CC1` [Example 3, 1-(2-(2-biphenyl)ethyl)-4-(2-methoxyphenyl)piperazine], in assay [1], the IC50 was 2 nM. For the same compound, in assay [2], the “pA2, 5-HT1A receptor antagonism” value stood at 8.1.
